Experimental data as given in patent EP4775582A1, “MACROCYCLIC COMPOUND AND ANTIBODY-DRUG CONJUGATE THEREOF” (Genfleet Therapeutics (Shanghai) Inc., priority 2023, dated 2025).
Values after ≈ are worked out from the molar mass of the structure shown. Where two headings read alike, the source gives them in different places.

How the values were obtained:
[1] = target: KRAS WT-cRAF (Homo sapiens, UniProt P01116+P62937); test: Assay for binding of KRAS to cRAF (HTRF, with Cyclophilin A), KRAS WT
Method: (§3) The plate was centrifuged at 1000 rpm for 1 min and then incubated in the thermostatic incubator at 20 °C for 30 min. […] The plate was centrifuged at 1000 rpm for 1 min and then incubated in the thermostatic incubator at 20 °C for 60 min. […] The working solution was added to the aforementioned assay plate at 5 µL/well. The plate was centrifuged at 1000 rpm for 1 min and then incubated in the thermostatic incubator at 20 °C for 60 min.

[2] = test system: H441 p-ERK; test: Cell p-ERK assay (HTRF), NCI-H441 cells; assay type: cell-based, human; conditions: Homo sapiens; NCI-H441 cells (KRAS G12V), 3 h incubation
Summary of the method: (§1)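 AsPC-1 (10000/well) or NCI-H441 (20000/well) cells were seeded overnight and then exposed to compound for 3 h at 37 °C. Lysates were probed for ERK phospho-T202/Y204 by HTRF with a 4-hour antibody incubation. IC50 values came from four-parameter fits of inhibition against log concentration.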

[3] = Solubility experiment (HPLC, external standard); assay type: physicochemical; conditions: 37 °C, 24 h; for solubility at 24 h: pH 7.4, pH 7.4 medium
Method: This experiment was intended to determine the solubility of the compounds in media at different pH values. The materials used in the experiment included: a pH 1.2 medium, a pH 4.5 medium, a pH 7.4 medium, and a diluent (acetonitrile/water = 50/50). 1. The preparation methods for media are as follows:
One centrifuge tube (containing about 2 mg of the test sample) was taken, 1 mL of DMSO was added to completely dissolve the test sample, and the mixture was marked as stock-1. 0.2 mL of stock-1 was transferred into a 10 mL volumetric flask, and then the 50:50 (acetonitrile/water) solution was added to bring the volume to the mark, so as to give a control solution.
Additionally, centrifuge tubes each containing about 1 mg of the test sample were taken, 1 mL of the corresponding medium solution was then added, and the tubes were shaken on a 37 °C water bath shaker for 24 h. After centrifugation for 3 times (centrifugation time: 10 min, rotation speed: 12000 rpm), 0.2 mL of the supernatants were taken, 0.8 mL of the diluent (acetonitrile/water = 50/50) was added to each tube, and the mixtures were vortexed and mixed well to give solubility samples.
The solubility samples described above and the control solution were sequentially analyzed by high performance liquid chromatography. The chromatographic conditions are as follows:
The actual concentration of the compound in each solubility sample was calculated according to an external standard method. Concentration (μg/mL) = (ASample × CControl × DSample)/(AControl)∗1000; [formula] Asample: the peak area of the target peak in the sample solution; Ccontrol: the concentration (mg/mL) of the control solution; Dsample: the dilution factor of the sample solution; Acontrol: the peak area of the target peak in the control solution.

[4] = target: KRAS G12V-cRAF (Homo sapiens, UniProt P01116+P62937, G12V); test: Assay for binding of KRAS to cRAF (HTRF, with Cyclophilin A), KRAS G12V
Chain of KRAS G12V-cRAF (P01116 1-188 isoform P01116-2 G12V): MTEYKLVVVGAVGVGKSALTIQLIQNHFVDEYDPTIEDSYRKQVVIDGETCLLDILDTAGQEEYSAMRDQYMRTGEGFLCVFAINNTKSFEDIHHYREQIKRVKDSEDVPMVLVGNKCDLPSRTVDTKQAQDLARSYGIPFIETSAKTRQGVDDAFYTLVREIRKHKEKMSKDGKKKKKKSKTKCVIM
Chain of KRAS G12V-cRAF (P62937 whole entry): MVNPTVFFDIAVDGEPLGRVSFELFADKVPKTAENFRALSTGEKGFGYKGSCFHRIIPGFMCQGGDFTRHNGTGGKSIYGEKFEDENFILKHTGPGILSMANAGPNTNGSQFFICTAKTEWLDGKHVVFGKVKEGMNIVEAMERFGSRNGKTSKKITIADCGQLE
Method: as §3

[5] = test system: AsPC-1 p-ERK; test: Cell p-ERK assay (HTRF), AsPC-1 cells; assay type: cell-based, human; conditions: Homo sapiens
Summary of the method: as §1

[6] = test system: NCI-H441 cells; test: 3D cell proliferation assay (CellTiter Glo-3D), NCI-H441; assay type: cell-based, human; conditions: Homo sapiens, 120 h, NCI-H441 cells (KRAS G12V), 2% FBS, 5 days, read-out: H441 AP IC50
Summary of the method: (§2)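 Cells seeded at 800 per well (AsPC-1, NCI-H441) in 2% FBS medium and incubated overnight at 37 °C, 5% CO2. Compounds added next day from 10× stock, then 5 days' further culture. Viability read by CellTiter-Glo luminescence; IC50 from four-parameter fit of inhibition versus log concentration.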

[7] = test system: AsPC-1 cells; test: 3D cell proliferation assay (CellTiter Glo-3D), AsPC-1; assay type: cell-based, human; conditions: Homo sapiens, ASPC1, 120 h
Summary of the method: as §2

[8] = KRAS WT-cRAF binding assay(nM), GPPNP-KRAS WT, IC50 values
[9] = KRAS G12V-cRAF binding assay(nM), GPPNP-KRAS G12V, IC50 values
[10] = read-out: KRAS WT-cRAF binding assay, GPPNP-KRAS WT, IC50 values
[11] = read-out: KRAS G12V-cRAF binding assay, GPPNP-KRAS G12V, IC50 values
[12] = ASPC1, 3 h, read-out: AsPC-1 p-ERK IC50(nM)

Chain of KRAS WT-cRAF (P01116 1-188 isoform P01116-2): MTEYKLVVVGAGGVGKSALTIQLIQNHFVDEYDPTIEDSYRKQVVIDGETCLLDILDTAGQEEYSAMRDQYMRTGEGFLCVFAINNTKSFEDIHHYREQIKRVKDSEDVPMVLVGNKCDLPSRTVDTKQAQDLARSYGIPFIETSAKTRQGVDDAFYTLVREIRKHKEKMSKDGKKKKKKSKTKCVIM
Chain of KRAS WT-cRAF (P62937 whole entry): as the sequence (P62937 whole entry) above

| Structure (SMILES) | IC50 [1, 8] | IC50 [2] | solubility at 24 h ([3]; pH 7.4 medium) | IC50 [4, 9] | solubility at 24 h ([3]; ph 7.4 medium) | IC50 [5, 12] | IC50 [6] | IC50 ([7]; read-out: AsPC-1 AP IC50(nM)) | further results |
| --- | --- | --- | --- | --- | --- | --- | --- | --- | --- |
| COCCn1c(-c2cc(C#CCN3CCN(C(=O)CO)CC3)cnc2[C@H](C)OC)c2c3cc(ccc31)-c1csc(n1)C[C@H](NC(=O)[C@H]1[C@H](C)[C@@H]1C)C(=O)N1CCC[C@H](N1)C(=O)OCC(C)(C)C2 (atropisomer, axis not shown; (Ra)) [Compound Z63-1, (2R,3S)-N-((6^3S,4S,Z)-1^2-(5-(3-(4-(2-hydroxyacetyl)piperazin-1-yl)prop-1-yn-1-yl)-(Ra)-2-((S)-1-methoxyethyl)pyridin-3-yl)-1'-(2-methoxyethyl)-10,10-dimethyl-5,7-dioxo-6^1,6^2,6^3,6^4,6^5,6^6-hexahydro-1^1H-8-oxa-2(4,2)-thiazola-1(5,3)-indola-6(1,3)-pyridazinacycloundecaphane-4-yl)-2,3-dimethylcyclopropane-1-carboxamide] |  | 0.55 nM |  |  |  | 0.61 nM | 0.32 nM | 0.36 nM | Solubility at pH 7.4 (µg/mL) ([3]; pH 7.4 medium, 1440 min): 7.53 µg/mL |
| CO[C@@H](C)c1ncc(C#CCN2CCS(=O)(=O)CC2)cc1-c1c2c3cc(ccc3n1CCCO)-c1csc(n1)C[C@H](NC(=O)[C@H]1[C@@H]3COC[C@@H]31)C(=O)N1CCC[C@H](N1)C(=O)OCC(C)(C)C2 (atropisomer, axis not shown; (Ra)) [Compound Z24-1, (1R,5S,6r)-N-((6^3S,4S,Z)-1^2-(5-(3-(1,1-dioxidothiomorpholino)prop-1-yn-1-yl)-(Ra)-2-((S)-1-methoxyethyl)-pyridin-3-yl)-1^1-(3-hydroxypropyl)-10,10-dimethyl-5,7-dioxo-6^1,6^2,6^3,6^4,6^5,6^6-hexahydro-1^1H-8-oxa-2(4,2)-thiazola-1(5,3)-indola-6(1,3)-pyridazinacycloundecaphane-4-yl)-3-oxabicyclo[3.1.0]hexane-6-carboxamide] |  | 3.76 nM |  |  | 12.3 µg/mL (≈ 13.1 µM) | 2.64 nM | 1.77 nM | 1.73 nM |  |
| COCCn1c(-c2cc(C#CCN3CCN(C(=O)CO)CC3)c[n+]([O-])c2C(C)OC)c2c3cc(ccc31)-c1csc(n1)CC(NC(=O)C1C3COCC31)C(=O)N1CCCC(N1)C(=O)OCC(C)(C)C2 (atropisomer, axis not shown; (Ra)) [Compound Z38-1, (Ra)-3-((6^3S,4S,Z)-4-((1R,5S,6r)-3-oxabicyclo[3.1.0]hexane-6-carboxamido)-1^1-(2-methoxyethyl)-10,10-dimethyl-5,7-dioxo-6^1,6^2,6^3,6^4,6^5,6^6-hexahydro-1^1H-8-oxa-2(4,2)-thiazola-1(5,3)-indola-6(1,3)-pyridazinacycloundecaphane-1^2-yl)-5-(3-(4-(2-hydroxyacetyl)piperazin-1-yl)prop-1-yn-1-yl)-2-((S)-1-methoxyethyl)pyridine-1-oxide] | 69.6 nM |  | 97 µg/mL (≈ 100 µM) | 37.7 nM |  |  |  |  |  |
| COCCn1c(-c2cc(C#CCN3CCN(C(=O)CO)CC3)c[n+]([O-])c2[C@H](C)OC)c2c3cc(ccc31)-c1csc(n1)C[C@H](NC(=O)[C@H]1[C@H](C)[C@@H]1C)C(=O)N1CCC[C@H](N1)C(=O)OCC(C)(C)C2 (atropisomer, axis not shown; (Ra)) [Compound Z54, (Ra)-3-((6^3S,4S,Z)-4-((1r,2R,3S)-2,3-dimethylcyclopropane-1-carboxamido)-1^1-(2-methoxyethyl)-10,10-dimethyl-5,7-dioxo-6^1,6^2,6^3,6^4,6^5,6^6-hexahydro-11H-8-oxa-2(4,2)-thiazola-1(5,3)-indola-6(1,3)-pyridazinacyclodecaphane-1^2-yl)-5-(3-(4-(2-hydroxyacetyl)piperazin-1-yl)prop-1-yn-1-yl)-2-((S)-1-methoxyethyl)pyridine 1-oxide] |  |  |  |  | 36.2 µg/mL (≈ 38 µM) |  | 4.7 nM |  | IC50 [1, 10]: 74.8 nM; IC50 [4, 11]: 12.1 nM; IC50 ([7]; AsPC-1 cells (KRAS G12D), 3D, 2% FBS, 5 days, read-out: AsPC-1 AP IC50): 14 nM |

The next lines start with results.

| IC50 [1, 8] | IC50 [2] | solubility at 24 h ([3]; pH 7.4 medium) | IC50 [4, 9] | solubility at 24 h ([3]; ph 7.4 medium) | IC50 [5, 12] | IC50 [6] | IC50 ([7]; read-out: AsPC-1 AP IC50(nM)) | Structure (SMILES) | further results |
| --- | --- | --- | --- | --- | --- | --- | --- | --- | --- |
| 62 nM | 8.12 nM | 101 µg/mL (≈ 113 µM) | 8.7 nM |  |  |  |  | CCn1c(-c2cc(C#CCN3CCS(=O)(=O)CC3)cnc2C(C)NC)c2c3cc(ccc31)-c1csc(n1)CC(NC(=O)C1C(C)C1C)C(=O)N1CCCC(N1)C(=O)OCC(C)(C)C2 (atropisomer, axis not shown; (Ra)) [Compound Z67, (1r,2R,3S)-N-((6^3S,4S,Z)-(Ra)-1^2-(5-(3-(1,1-dioxidothiomorpholino)prop-1-yn-1-yl)-2-((R)-1-(methylamino)ethyl)pyridin-3-yl)-1-ethyl-10,10-dimethyl-5,7-dioxo-6^1,6^2,6^3,6^4,6^5,6^6-hexahydro-1^1H-8-oxa-2(4,2)-thiazola-1(5,3)-indola-6(1,3)-pyridazinacycloundecaphane-4-yl)-2,3-dimethylcyclopropane-1-carboxamide] | IC50 ([5]; ASPC1, AsPC-1 cells (KRAS G12D), 3 h incubation, read-out: AsPC-1 p-ERK IC50): 10.6 nM |
|  | 1.27 nM |  |  | 363 µg/mL (≈ 401 µM) | 1.64 nM |  |  | CCn1c(-c2cc(C#CCN3CCN(C(=O)CN)CC3)cnc2[C@H](C)OC)c2c3cc(ccc31)-c1coc(n1)C[C@H](NC(=O)[C@H]1[C@@H]3COC[C@@H]31)C(=O)N1CCC[C@H](N1)C(=O)OCC(C)(C)C2 (atropisomer, axis not shown; (Ra)) [Compound Z167, (1R,5S,6r)-N-((6^3S,4S,Z)-1^2-(5-(3-(4-glycylpiperazin-1-yl)prop-1-yn-1-yl)-(Ra)-2-((S)-1-methoxyethyl)pyridin-3-yl)-1^1-ethyl-10,10-dimethyl-5,7-dioxo-6^1,6^2,6^3,6^4,6^5,6^6-hexahydro-1^1H-8-oxa-2(4,2)-oxazola-1(5,3)-indola-6(1,3)-pyridazinacycloundecaphane-4-yl)-3-oxabicyclo[3.1.0]hexane-6-carboxamide] | IC50 [1, 10]: 40.9 nM; IC50 [4, 11]: 13.9 nM |
| 31 nM |  | 22.4 µg/mL (≈ 24.6 µM) | 16.5 nM |  |  |  |  | CCn1c(-c2cc(C#CCN3CCS(=O)(=O)CC3)cnc2C(C)OC)c2c3cc(ccc31)-c1csc(n1)CC(NC(=O)C1C3CNCC31)C(=O)N1CCCC(N1)C(=O)OCC(C)(C)C2 (atropisomer, axis not shown; (Ra)) [Compound Z18, (1R,5S,6r)-N-((6^3S,4S,Z)-(Ra)-1^2-(5-(3-(1,1-dioxidothiomorpholino)prop-1-yn-1-yl)-2-((S)-1-methoxyethyl)pyridin-3-yl)-1^1-ethyl-10,10-dimethyl-5,7-dioxo-6^1,6^2,6^3,6^4,6^5,6^6-hexahydro-1^1H-8-oxa-2(4,2)-thiazola-1(5,3)-indola-6(1,3)-pyridazinacycloundecaphane-4-yl)-3-azabicyclo[3.1.0]hexane-6-carboxamide] |  |
|  | 0.64 nM |  |  | 20.8 µg/mL (≈ 22.8 µM) | 0.51 nM | 0.44 nM | 0.78 nM | CCn1c(-c2cc(C#CCN3CCS(=N)(=O)CC3)cnc2[C@H](C)OC)c2c3cc(ccc31)-c1csc(n1)C[C@H](NC(=O)[C@H]1[C@@H]3COC[C@@H]31)C(=O)N1CCC[C@H](N1)C(=O)OCC(C)(C)C2 (atropisomer, axis not shown; (Ra)) [Compound Z27] |  |
